Test results taken from article PMC9454942, “Novel AR/AR-V7 and Mnk1/2 Degrader, VNPP433-3β: Molecular Mechanisms of Action and Efficacy in AR-Overexpressing Castration Resistant Prostate Cancer In Vitro and In Vivo Models” (Cells, 2022).

Target: T1, androgen receptor (AR) ligand binding domain (Homo sapiens, UniProt P10275)
T1 construct: recombinant human AR LBD
T1 sequence (P10275 669-920 limits assumed): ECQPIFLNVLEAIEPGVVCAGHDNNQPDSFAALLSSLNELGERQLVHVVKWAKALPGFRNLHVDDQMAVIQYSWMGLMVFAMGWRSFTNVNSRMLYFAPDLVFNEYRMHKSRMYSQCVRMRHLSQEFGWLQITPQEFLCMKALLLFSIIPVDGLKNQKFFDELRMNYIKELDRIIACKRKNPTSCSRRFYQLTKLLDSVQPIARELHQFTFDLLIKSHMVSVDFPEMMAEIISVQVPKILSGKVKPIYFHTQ
Assay: fluorescence spectroscopy titration with purified AR LBD; supported by CETSA in LNCaP cells

Structure (SMILES): C[C@]12CC[C@H](n3ccnc3)CC1=CC[C@@H]1[C@@H]2CC[C@]2(C)C(n3cnc4ccccc43)=CC[C@@H]12 [VNPP433-3β]
- Kd: 360 ± 30 nM
